Measured values as given in ChEMBL document CHEMBL5665443, “Enzyme Inhibitor Single Concentration assay results for EUbOPEN Chemogenomics Library” (2024).

What was measured:
[1] = biological target: N-glycosylase/DNA lyase (Homo sapiens) (UniProt O15527);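 also: OGG1 cleavage of a quenched duplex DNA oligonucleotide, coupled to APE1 for strand incision, read as fluorescence at 594 nm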
Description: Inhibition of OGG1 by quantifying inhibition of OGG1-mediated cleavage and dissociation of quenched duplex DNA oligonucleotides, measured as fluorescence at 594 nm. To generate a functional strand incision and increase turn-over this assay is coupled to APE1.

[2] = biological target: T1, Single-strand selective monofunctional uracil DNA glycosylase (Homo sapiens) (UniProt Q53HV7); conditions: Hit No;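 also: enzymatic SMUG1 assay coupled with APE1, reading fluorescence at 594 nm released when a quenched double-stranded DNA oligonucleotide substrate is cleaved and separated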
T1 sequence (whole entry): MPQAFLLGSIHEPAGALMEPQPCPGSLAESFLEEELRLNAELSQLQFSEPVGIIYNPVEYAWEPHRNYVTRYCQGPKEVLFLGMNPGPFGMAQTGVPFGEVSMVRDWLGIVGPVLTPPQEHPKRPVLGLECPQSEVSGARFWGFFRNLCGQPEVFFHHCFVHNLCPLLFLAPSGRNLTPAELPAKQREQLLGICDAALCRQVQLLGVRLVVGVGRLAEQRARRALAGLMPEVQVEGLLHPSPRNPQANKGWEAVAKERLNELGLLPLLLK
Description: Inhibition of SMUG1 by quantifying inhibition of SMUG1-mediated cleavage and dissociation of quenched duplex DNA oligonucleotides, measured as fluorescence at 594 nm. To generate a functional strand incision and increase turn-over this assay is coupled to APE1.

[3] = biological target: Endonuclease 8-like 1 (Homo sapiens) (UniProt Q96FI4); conditions: Hit No;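 also: fluorescence at 594 nm from quenched duplex DNA oligonucleotides released by NEIL1 cleavage and strand separation, reported as reduction of this enzyme activity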
Chain of Endonuclease 8-like 1 (Homo sapiens) (Q96FI4 whole entry): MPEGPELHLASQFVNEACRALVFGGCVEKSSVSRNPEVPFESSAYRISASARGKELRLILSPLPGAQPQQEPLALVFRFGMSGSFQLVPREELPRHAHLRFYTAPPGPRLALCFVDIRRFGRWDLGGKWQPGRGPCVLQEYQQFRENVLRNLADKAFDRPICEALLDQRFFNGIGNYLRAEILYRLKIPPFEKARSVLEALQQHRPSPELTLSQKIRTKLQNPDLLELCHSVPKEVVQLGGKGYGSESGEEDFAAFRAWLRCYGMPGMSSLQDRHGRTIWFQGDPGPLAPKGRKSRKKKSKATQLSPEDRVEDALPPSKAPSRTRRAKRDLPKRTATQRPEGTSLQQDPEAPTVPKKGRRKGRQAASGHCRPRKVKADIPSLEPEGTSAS
Description: Inhibition of NEIL1 by quantifying inhibition of NEIL1-mediated cleavage and dissociation of quenched duplex DNA oligonucleotides, measured as fluorescence at 594 nm.

[4] = biological target: Uracil-DNA glycosylase (Homo sapiens) (UniProt P13051); conditions: Hit No;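 also: UNG excision on a quenched double-stranded DNA oligo probe, with APE1 added for strand incision and turnover, read as fluorescence at 594 nm as strands separate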
Chain of Uracil-DNA glycosylase (Homo sapiens) (P13051 whole entry, the tested form may be a part): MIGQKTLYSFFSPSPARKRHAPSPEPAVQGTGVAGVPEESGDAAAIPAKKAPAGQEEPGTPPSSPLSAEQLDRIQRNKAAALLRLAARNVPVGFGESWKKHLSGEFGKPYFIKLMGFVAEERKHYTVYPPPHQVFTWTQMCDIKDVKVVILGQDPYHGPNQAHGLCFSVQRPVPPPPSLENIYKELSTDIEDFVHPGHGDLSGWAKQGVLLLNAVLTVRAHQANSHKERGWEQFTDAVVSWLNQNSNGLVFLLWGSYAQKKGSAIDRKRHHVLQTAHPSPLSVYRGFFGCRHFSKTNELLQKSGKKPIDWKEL
Description: Inhibition of UNG by quantifying inhibition of UNG-mediated cleavage and dissociation of quenched duplex DNA oligonucleotides, measured as fluorescence at 594 nm. To generate a functional strand incision and increase turn-over this assay is coupled to APE1.

[5] = biological target: Methyl-CpG-binding domain protein 4 (Homo sapiens) (UniProt O95243); conditions: Hit No;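 also: MBD4 activity read as fluorescence at 594 nm from cleavage and release of a quenched duplex DNA oligonucleotide, with APE1 coupled to incise the strand and raise turnover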
Chain of Methyl-CpG-binding domain protein 4 (Homo sapiens) (O95243 whole entry, the tested form may be a part): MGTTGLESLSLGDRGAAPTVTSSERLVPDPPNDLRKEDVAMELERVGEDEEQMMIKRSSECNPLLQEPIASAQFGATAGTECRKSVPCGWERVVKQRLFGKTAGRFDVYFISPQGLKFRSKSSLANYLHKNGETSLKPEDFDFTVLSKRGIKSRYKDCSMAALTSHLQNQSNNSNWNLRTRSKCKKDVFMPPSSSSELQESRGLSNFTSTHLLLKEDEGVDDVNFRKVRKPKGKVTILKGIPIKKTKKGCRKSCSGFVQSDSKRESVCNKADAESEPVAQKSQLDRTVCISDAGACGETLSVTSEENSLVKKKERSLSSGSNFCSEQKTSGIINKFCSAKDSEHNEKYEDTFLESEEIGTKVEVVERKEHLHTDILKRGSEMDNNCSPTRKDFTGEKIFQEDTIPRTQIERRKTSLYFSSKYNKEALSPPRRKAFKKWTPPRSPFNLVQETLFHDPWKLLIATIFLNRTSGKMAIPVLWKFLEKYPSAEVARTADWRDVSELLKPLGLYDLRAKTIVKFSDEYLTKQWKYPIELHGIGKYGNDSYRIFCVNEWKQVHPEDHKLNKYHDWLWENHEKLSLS
Description: Inhibition of MBD4 by quantifying inhibition of MBD4-mediated cleavage and dissociation of quenched duplex DNA oligonucleotides, measured as fluorescence at 594 nm. To generate a functional strand incision and increase turn-over this assay is coupled to APE1.

[6] = biological target: G/T mismatch-specific thymine DNA glycosylase (Homo sapiens) (UniProt Q13569);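 also: human TDG cleavage of quenched duplex DNA oligonucleotides coupled to APE1, strand release read as fluorescence at 594 nm, inhibition of TDG activity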
Chain of G/T mismatch-specific thymine DNA glycosylase (Homo sapiens) (Q13569 whole entry): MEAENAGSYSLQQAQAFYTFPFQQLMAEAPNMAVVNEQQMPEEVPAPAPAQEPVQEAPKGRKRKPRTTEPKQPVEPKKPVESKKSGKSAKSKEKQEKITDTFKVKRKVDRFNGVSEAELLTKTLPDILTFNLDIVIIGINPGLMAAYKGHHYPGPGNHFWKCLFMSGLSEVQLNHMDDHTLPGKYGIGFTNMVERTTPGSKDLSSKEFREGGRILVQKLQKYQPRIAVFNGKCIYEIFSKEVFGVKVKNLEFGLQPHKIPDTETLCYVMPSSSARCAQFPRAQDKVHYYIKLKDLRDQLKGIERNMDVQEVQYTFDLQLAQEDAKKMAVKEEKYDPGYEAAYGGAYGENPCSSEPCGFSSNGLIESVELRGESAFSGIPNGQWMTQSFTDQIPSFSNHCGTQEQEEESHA
Description: Inhibition of TDG by quantifying inhibition of TDG-mediated cleavage and dissociation of quenched duplex DNA oligonucleotides, measured as fluorescence at 594 nm. To generate a functional strand incision and increase turn-over this assay is coupled to APE1.

[7] = biological target: T2, Adenine DNA glycosylase (Homo sapiens) (UniProt Q9UIF7); conditions: Hit No;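 also: human MUTYH activity read as 594 nm fluorescence from cleavage and release of a quenched DNA duplex, coupled with APE1 for strand incision, lower signal meaning inhibition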
T2 sequence (whole entry): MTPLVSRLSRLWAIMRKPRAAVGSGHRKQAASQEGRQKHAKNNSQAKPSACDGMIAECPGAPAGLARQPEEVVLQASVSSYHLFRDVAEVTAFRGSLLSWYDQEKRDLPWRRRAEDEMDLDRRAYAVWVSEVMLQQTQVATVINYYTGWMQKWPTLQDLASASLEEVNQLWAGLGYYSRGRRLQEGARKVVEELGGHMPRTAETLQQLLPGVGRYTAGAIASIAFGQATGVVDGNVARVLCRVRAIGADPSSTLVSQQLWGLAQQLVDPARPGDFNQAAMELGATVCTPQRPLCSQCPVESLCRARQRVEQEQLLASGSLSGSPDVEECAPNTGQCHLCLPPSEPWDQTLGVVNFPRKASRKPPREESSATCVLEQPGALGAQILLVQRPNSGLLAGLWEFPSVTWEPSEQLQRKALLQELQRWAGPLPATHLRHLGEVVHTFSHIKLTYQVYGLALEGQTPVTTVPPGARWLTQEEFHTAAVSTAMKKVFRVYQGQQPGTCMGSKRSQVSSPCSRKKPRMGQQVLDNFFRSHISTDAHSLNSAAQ
Description: Inhibition of MUTYH by quantifying inhibition of MUTYH-mediated cleavage and dissociation of quenched duplex DNA oligonucleotides, measured as fluorescence at 594 nm. To generate a functional strand incision and increase turn-over this assay is coupled to APE1.

[8] = biological target: T3, Endonuclease III-like protein 1 (Homo sapiens) (UniProt P78549); conditions: Hit No;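 also: enzyme assay tracking NTHL1 cutting and release of a quenched double-stranded DNA oligo substrate, read as fluorescence at 594 nm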
T3 sequence (whole entry): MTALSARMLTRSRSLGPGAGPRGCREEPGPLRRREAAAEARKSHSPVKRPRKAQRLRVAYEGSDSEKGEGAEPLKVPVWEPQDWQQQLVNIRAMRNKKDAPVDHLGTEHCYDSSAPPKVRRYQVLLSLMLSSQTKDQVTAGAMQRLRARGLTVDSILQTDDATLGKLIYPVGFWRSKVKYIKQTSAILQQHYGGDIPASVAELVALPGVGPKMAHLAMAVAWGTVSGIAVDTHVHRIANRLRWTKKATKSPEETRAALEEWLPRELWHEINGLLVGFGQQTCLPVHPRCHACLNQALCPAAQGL
Description: Inhibition of NTHL1 by quantifying inhibition of NTHL1-mediated cleavage and dissociation of quenched duplex DNA oligonucleotides, measured as fluorescence at 594 nm.

[9] = biological target: T4, Endonuclease 8-like 2 (Homo sapiens) (UniProt Q969S2); conditions: Compound Concentration 10.0 uM, Hit No;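 also: fluorescence at 594 nm reports NEIL2 cutting and release of a quenched double-stranded DNA oligo substrate, reduced signal read as inhibition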
T4 sequence (whole entry): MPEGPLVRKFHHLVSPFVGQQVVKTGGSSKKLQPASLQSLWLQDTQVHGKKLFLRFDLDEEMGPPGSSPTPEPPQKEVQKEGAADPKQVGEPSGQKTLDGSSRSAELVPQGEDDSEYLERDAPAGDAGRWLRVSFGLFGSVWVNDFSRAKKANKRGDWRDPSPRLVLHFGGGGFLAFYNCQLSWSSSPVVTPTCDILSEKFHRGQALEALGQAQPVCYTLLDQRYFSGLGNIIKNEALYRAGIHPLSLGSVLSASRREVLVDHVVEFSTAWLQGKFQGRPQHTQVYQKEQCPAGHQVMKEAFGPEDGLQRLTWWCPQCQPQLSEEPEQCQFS
Description: Inhibition of NEIL2 by quantifying inhibition of NEIL2-mediated cleavage and dissociation of quenched duplex DNA oligonucleotides, measured as fluorescence at 594 nm.

[10] = Compound Concentration 1.0 uM, Hit No
[11] = Compound Concentration 10.0 uM, Hit No

Chain of N-glycosylase/DNA lyase (Homo sapiens) (O15527 whole entry): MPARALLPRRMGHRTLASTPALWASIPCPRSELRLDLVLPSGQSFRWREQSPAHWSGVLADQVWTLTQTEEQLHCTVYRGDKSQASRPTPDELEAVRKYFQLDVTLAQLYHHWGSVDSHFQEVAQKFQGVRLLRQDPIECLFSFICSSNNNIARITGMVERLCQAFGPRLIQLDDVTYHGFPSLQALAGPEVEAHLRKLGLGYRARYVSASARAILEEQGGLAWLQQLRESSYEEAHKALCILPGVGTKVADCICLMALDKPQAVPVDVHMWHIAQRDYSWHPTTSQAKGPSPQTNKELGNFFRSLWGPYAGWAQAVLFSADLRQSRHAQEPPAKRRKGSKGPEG

SMILES	inhibition [1, 10] [%]	inhibition ([2]; Compound Concentration 1.0 uM) [%]	inhibition ([3]; Compound Concentration 1.0 uM) [%]	inhibition ([4]; Compound Concentration 1.0 uM) [%]	inhibition ([5]; Compound Concentration 1.0 uM) [%]	inhibition [6, 10] [%]	inhibition ([7]; Compound Concentration 1.0 uM) [%]	inhibition ([8]; Compound Concentration 1.0 uM) [%]	inhibition [1, 11] [%]	inhibition ([2]; Compound Concentration 10.0 uM) [%]	inhibition ([4]; Compound Concentration 10.0 uM) [%]	inhibition ([5]; Compound Concentration 10.0 uM) [%]	inhibition [6, 11] [%]	inhibition ([7]; Compound Concentration 10.0 uM) [%]	inhibition ([8]; Compound Concentration 10.0 uM) [%]	inhibition ([3]; Compound Concentration 10.0 uM) [%]	inhibition [9] [%]	inhibition ([1]; Compound Concentration 10.0 uM, Hit Yes) [%]	inhibition ([6]; Compound Concentration 1.0 uM, Hit Yes) [%]
CNC(=O)Nc1ccc2c(c1)CC[C@@]21OC(=O)N(CC(=O)N(Cc2ccc(F)cc2)[C@@H](C)C(F)(F)F)C1=O	-4.69	13.6	-8.77	5.87	58.8	100	0.168	-7.2	–	–	–	–	–	–	–	–	–	–	–
Cc1nccc(COC(=O)N2C[C@@H]3[C@@H](CNC(=O)c4ccc5[nH]nnc5c4)[C@@H]3C2)n1	–	–	–	–	–	–	–	–	-5.03	19.9	1.28	55.9	59.6	10.4	0.685	–	–	–	–
CC(C)(O)c1ccc(N2Cc3c(ccnc3-c3ccc(F)cc3OCC(F)(F)F)C2=O)cc1	-2.43	2.79	-3.02	3.14	55.3	51.2	-6.44	-1.95	–	–	–	–	–	–	–	–	–	–	–
COCCOc1nc(-c2ccc(Cl)nc2)nc2c1CN(C(=O)c1ncn3ccccc13)CC2	-1.84	8.24	-3.17	-0.22	67.8	39.9	-6.39	-3.92	–	–	–	–	–	–	–	–	–	–	–
C[C@@H]1CN(c2cc(-c3n[nH]c4ccc(OC5(C)CC5)cc34)ncn2)C[C@H](C)O1	12.9	23.1	-2.64	7.33	12.4	48.1	-7.22	-1.31	-2.23	18	3.96	64.1	98.4	9.89	2	-1.5	–	–	–
O=c1ccc2ccc(OCCCCN3CCN(c4cccc5sccc45)CC3)cc2[nH]1	–	–	–	–	–	–	–	–	-3.25	-9.19	–	-1.94	-1.81	3.6	4.86	6.47	-1.98	–	–
O=C1N/C(=N/c2ccccc2F)S/C1=C\c1ccc(C(=O)O)cc1	–	–	–	–	–	–	–	–	-2.53	-0.227	–	-3.22	3.04	3.09	17.3	-0.204	3.51	–	–
c1ccc(-c2oc3ncnc(NC[C@@H]4CCCO4)c3c2-c2ccccc2)cc1	6.47	21.6	-7.66	4.04	18.1	35.9	3.16	7.06	–	–	–	–	–	–	–	–	–	–	–
COc1cc(N(C)c2ccnc3ccc(C(F)(F)F)cc23)cc(OC)c1OC	–	–	–	–	–	–	–	–	1.25	13.4	1.59	5.39	33.1	-1.88	2.18	4.23	–	–	–
CN(C)C(=O)N1CC[C@H](NC2=Nc3cc(F)ccc3N(CC(F)F)c3ccc(Cl)cc32)C1	–	–	–	–	–	–	–	–	-5.59	19.6	6.61	-7.39	38.4	36.6	-2.7	-0.787	–	–	–
CC(C)(C)c1ccc(C(=O)Nc2cn3cc(-n4ccnc4)ccc3n2)cc1	–	–	–	–	–	–	–	–	22.7	16.9	4.09	1.23	51.5	6.44	-0.61	-0.391	–	–	–
CNc1ncc2cc(-c3ccc(-c4ncccc4F)cc3Cl)c(=O)n(C[C@H]3OC[C@H](N)CO3)c2n1	–	–	–	–	–	–	–	–	–	24.9	9.96	9.96	48.4	10.6	-2	0.666	-5.96	–	–
CN(C)CCOc1ccc(-c2nc(-c3ccncc3)c(-c3ccc4c(c3)CC/C4=N\O)[nH]2)cc1	–	–	–	–	–	–	–	–	–	-6.49	11.4	23.9	47.4	0.369	11.2	1.19	26.4	–	–
Cn1cncc1[C@@](O)(COc1ccc(C#N)cc1-c1ccc(OC(F)(F)F)cc1)c1ccc(C#N)cc1	–	–	–	–	–	–	–	–	10.2	-1.81	-3.07	56	45.8	-9.72	7.26	–	–	–	–
COc1ccc(OC(=O)N(CC(=O)O)Cc2ccc(OCCc3nc(-c4ccccc4)oc3C)cc2)cc1	–	–	–	–	–	–	–	–	27	20.2	3.56	67.6	53.7	29.2	5.94	–	–	–	–
CCn1c(=O)c(C)cn(Cc2nnc(-c3ccc(F)c(O)c3F)s2)c1=O	–	–	–	–	–	–	–	–	-4.39	3.85	-4.5	53.9	48	-9.23	2	–	–	–	–
O[C@H]1CC[C@H](Nc2ncc3nc(Nc4c(F)cc(F)cc4F)n([C@H]4CCOC4)c3n2)CC1	–	–	–	–	–	–	–	–	6.26	20.8	2.17	-7.12	37.3	1.28	1.48	–	–	–	–
C[C@H](CCOc1cccc(CC(=O)O)c1)N(Cc1cccc(C(F)(F)F)c1Cl)CC(c1ccccc1)c1ccccc1	–	–	–	–	–	–	–	–	–	19	0.574	61.9	52	-7.97	11.9	-4.38	–	103	–
O=C(NCc1ccccc1)c1ccc(S(=O)(=O)NCc2ccccc2)cc1	–	–	–	–	–	–	–	–	32.2	24.3	3.04	-9.13	39	27.8	-8.98	-2.64	–	–	–
Cn1cc(-n2cnc3c(NCc4nc5cc(Cl)c(Cl)cc5[nH]4)nc(N4CCOCC4)nc32)cn1	–	–	–	–	–	–	–	–	–	25.7	3.73	6.19	40.7	9.84	-7.58	6.21	1.04	–	–
CN(C)C(=O)Cn1cc(-c2ccc(-c3nnc4ccccn34)cc2)cn1	3.29	22.7	-1.84	2.39	7.42	–	27.4	-9.68	–	–	–	–	–	–	–	–	–	–	100
Cc1nc(NC(=O)N2CCC[C@H]2C(N)=O)sc1-c1ccnc(C(C)(C)C(F)(F)F)c1	–	–	–	–	–	–	–	–	12.9	16.5	2.95	-5.03	38	6.32	12.6	–	–	–	–
CC(C)(C)NC[C@H](O)COc1nsnc1N1CCOCC1	–	–	–	–	–	–	–	–	-3.29	-0.808	–	2.07	9.57	2.84	-8.34	-6.13	-5.47	–	–
COC[C@H](NC(=O)c1ccn(S(C)(=O)=O)c1)C(=O)Nc1nc(-c2cccc(-c3ccn(C)n3)c2)cs1	-7.59	16.9	–	4.22	43.1	48.2	2.68	-3.92	–	–	–	–	–	–	–	–	–	–	–
